Test results from patent publication US20110269825A1, “Modified Thromboxane A2 Receptor Promoter Sequence” (priority 2008, published 2011).

How the values were obtained:
[1] = system: Prm1-directed luciferase expression; experiment: Effect of PMA, PD98059 or Vitamin D3 on Prm1-directed luciferase expression in HEL cells; assay type: cell-based, human
Method: HEL and EA.hy 926 cells were co-transfected with the various pGL3Basic-recombinant plasmids (2 mg), encoding firefly luciferase, along with pRL-TK (200 ng), encoding renilla luciferase, using DMRIE-C® transfection reagent. HEK293, WI-38, and 1° hAoSMCs were co-transfected with the pGL3Basic-recombinant plasmids (2 mg), along with pRL-TK (200 ng), using Effectene transfection reagent. In all cases, cells co-transfected with pRL-TK (200 ng) in the presence of either the pGL3Control vector (firefly luciferase gene under the control of the SV40 promoter; 2 mg) or the promoter-less pGL3Basic empty vector (2 mg), which served as positive and negative controls, respectively. […] Relative firefly to renilla luciferase activity (arbitrary units) was calculated as a ratio and was expressed in relative luciferase units (RLU). To investigate the effect of over-expression of exon 5 (+ or −) or KTS (+ or −) isoforms of WT1 on Prm1-directed gene expression, HEL cells were co-transfected with either pGL3b:Prm1 or pGL3b:Prm1D (1.5 μg) plus 200 ng of pRL-TK along with either pcDNA3:WT1 (+/+), pcDNA3:WT1 (+/−), pcDNA3:WT1 (−/+), pcDNA3:WT1 (−/−) (0.5 μg), or as a control, pcDNA3 (0.5 μg). […] The plasmid pCMV5-NAB1, containing the entire coding sequence for NAB1, was generously donated by Dr. Gerald Thiel, University of Saarland Medical Center, Homburg, Germany, and has been described previously (Thiel et al., 2000). To investigate the effect of over-expression of NAB1 on the PMA-mediated induction of Prm1-directed gene expression, HEL cells were transiently co-transfected with pGL3b:Prm1 (2 μg) plus pRL-TK (200 ng) along with either pCMV5 (control) or pCMV:NAB1 (1 μg).

[2] = system: EA.hy 926 (human endothelial) cells; experiment: Dual luciferase genetic reporter assay in EA.hy 926 cells; assay type: cell-based
Method: (§1) HEL and EA.hy 926 cells were co-transfected with the various pGL3Basic-recombinant plasmids (2 mg), encoding firefly luciferase, along with pRL-TK (200 ng), encoding renilla luciferase, using DMRIE-C® transfection reagent. HEK293, WI-38, and 1° hAoSMCs were co-transfected with the pGL3Basic-recombinant plasmids (2 mg), along with pRL-TK (200 ng), using Effectene transfection reagent. In all cases, cells co-transfected with pRL-TK (200 ng) in the presence of either the pGL3Control vector (firefly luciferase gene under the control of the SV40 promoter; 2 mg) or the promoter-less pGL3Basic empty vector (2 mg), which served as positive and negative controls, respectively. Firefly and renilla luciferase expression was assayed some 48 h post-transfection using the Dual-Luciferase Reporter Assay System™, as described (Coyle et al., 2005). Relative firefly to renilla luciferase activity (arbitrary units) was calculated as a ratio and was expressed in relative luciferase units (RLU). To investigate the effect of over-expression of exon 5 (+ or −) or KTS (+ or −) isoforms of WT1 on Prm1-directed gene expression, HEL cells were co-transfected with either pGL3b:Prm1 or pGL3b:Prm1D (1.5 μg) plus 200 ng of pRL-TK along with either pcDNA3:WT1 (+/+), pcDNA3:WT1 (+/−), pcDNA3:WT1 (−/+), pcDNA3:WT1 (−/−) (0.5 μg), or as a control, pcDNA3 (0.5 μg). Cells were harvested 48 h post-transfection and assayed for luciferase activity, as above, or subjected to western blot or RT-PCR analysis. The plasmids pcDNA3:WT1 (+/+), pcDNA3:WT1 (+/−), pcDNA3:WT1 (−/+) and pcDNA3:WT1 (−/−) were generously donated by Dr. Charles T. Roberts JR, Oregon National Primate Research Center, Oregon, USA and have been previously described (Tajinda et al., 1999). For PMA studies, approximately 32 h post-transfection, the medium was supplemented with PMA (100 nM), with PMA (100 nM) and PD98059 (10 μM) or, as a control, with vehicle [0.1% (v/v) DMSO]. After 16 h, cells were assayed for firefly and renilla luciferase using the Dual-Luciferase Reporter Assay System™ as previously described (Coyle et al., 2005). […]

HEL 92.1.7 cells = experiment: Dual luciferase genetic reporter assay of promoter-directed luciferase expression in HEL cells; assay type: cell-based, human
Method: HEL and EA.hy 926 cells were co-transfected with the various pGL3Basic-recombinant plasmids (2 mg), encoding firefly luciferase, along with pRL-TK (200 ng), encoding renilla luciferase, using DMRIE-C® transfection reagent. HEK293, WI-38, and 1° hAoSMCs were co-transfected with the pGL3Basic-recombinant plasmids (2 mg), along with pRL-TK (200 ng), using Effectene transfection reagent. In all cases, cells co-transfected with pRL-TK (200 ng) in the presence of either the pGL3Control vector (firefly luciferase gene under the control of the SV40 promoter; 2 mg) or the promoter-less pGL3Basic empty vector (2 mg), which served as positive and negative controls, respectively. Firefly and renilla luciferase expression was assayed some 48 h post-transfection using the Dual-Luciferase Reporter Assay System™, as described (Coyle et al., 2005). Relative firefly to renilla luciferase activity (arbitrary units) was calculated as a ratio and was expressed in relative luciferase units (RLU). To investigate the effect of over-expression of exon 5 (+ or −) or KTS (+ or −) isoforms of WT1 on Prm1-directed gene expression, HEL cells were co-transfected with either pGL3b:Prm1 or pGL3b:Prm1D (1.5 μg) plus 200 ng of pRL-TK along with either pcDNA3:WT1 (+/+), pcDNA3:WT1 (+/−), pcDNA3:WT1 (−/+), pcDNA3:WT1 (−/−) (0.5 μg), or as a control, pcDNA3 (0.5 μg). Cells were harvested 48 h post-transfection and assayed for luciferase activity, as above, or subjected to western blot or RT-PCR analysis. The plasmids pcDNA3:WT1 (+/+), pcDNA3:WT1 (+/−), pcDNA3:WT1 (−/+) and pcDNA3:WT1 (−/−) were generously donated by Dr. Charles T. Roberts JR, Oregon National Primate Research Center, Oregon, USA and have been previously described (Tajinda et al., 1999). For PMA studies, approximately 32 h post-transfection, the medium was supplemented with PMA (100 nM), with PMA (100 nM) and PD98059 (10 μM) or, as a control, with vehicle [0.1% (v/v) DMSO]. After 16 h, cells were assayed for firefly and renilla luciferase using the Dual-Luciferase Reporter Assay System™ as previously described (Coyle et al., 2005). The plasmid pCMV5-NAB1, containing the entire coding sequence for NAB1, was generously donated by Dr. Gerald Thiel, University of Saarland Medical Center, Homburg, Germany, and has been described previously (Thiel et al., 2000). To investigate the effect of over-expression of NAB1 on the PMA-mediated induction of Prm1-directed gene expression, HEL cells were transiently co-transfected with pGL3b:Prm1 (2 μg) plus pRL-TK (200 ng) along with either pCMV5 (control) or pCMV:NAB1 (1 μg). Cells were harvested 48 h post-transfection and assayed for luciferase activity, as above.

[3] = system: human tissue factor (hTF); experiment: Immunoblot analysis of promoter-driven human tissue factor expression in HEL cells; assay type: cell-based; settings: 48 h post-transfection, compared with CMV promoter (pcDNA3.1(−):hTF) and pcDNA3.1(−)
Method: The expression of WT1, Sp1, Egr1, NF-E2, GATA-1 and Ets-1 proteins in HEL cells was confirmed by western blot analysis. Briefly, whole cell protein was resolved by SDS-PAGE (10% acrylamide gels) and transferred to polyvinylidene difluoride (PVDF) membrane according to standard methodology. Membranes were screened using anti-WT1, anti-NF-E2, anti-Sp1, anti-Egr1, anti-GATA-1 or anti-Ets-1 sera in 5% non fat dried milk in 1×TBS (0.01 M Tris/HCl, 0.1 M NaCl) for 2 h at room temperature followed by washing and screening using goat anti-rabbit horseradish peroxidase (sc-2204) followed by chemiluminescence detection, as described by the supplier (Roche Applied Science). For PMA studies, HEL cells were pre-incubated for the indicated amount of time with 100 nM PMA, with 10 μM PD98059, with 100 nM PMA plus 10 μM PD98059 or, as a control, with vehicle [0.1% (v/v) DMSO]. Whole cell protein (60 μg per lane) was resolved by SDS-PAGE (10% acrylamide gels) and transferred to polyvinylidene difluoride (PVDF) membrane according to standard methodology. […] Cells were harvested 48 hr post-transfection and aliquots ([…]) were analysed by SDS-PAGE/western blot analysis. As a positive control for hTF expression, […] of a commercial control Tissue-Factor Biomass was also analysed. […]

[4] = system: 1° hAoSMC (primary human aortic smooth muscle) cells; experiment: Dual luciferase genetic reporter assay in 1° hAoSMC; assay type: cell-based; settings: for Mean firefly relative to renilla luciferase activity: co-transfected with pRL-TK
Method: as §1

[5] = system: WI-38 (human lung fibroblast) cells; experiment: Dual luciferase genetic reporter assay in WI-38 cells; assay type: cell-based
Method: as §1

[6] = system: HEK (Human embryonic kidney) 293 cells; experiment: Dual luciferase genetic reporter assay in HEK 293 cells; assay type: cell-based
Method: as §1

[7] = system: Prm1-directed luciferase expression; experiment: Effect of over-expression of WT1 isoforms, Egr1 or NAB1 on Prm1-directed luciferase expression in HEL cells; assay type: cell-based, human
Method: HEL and EA.hy 926 cells were co-transfected with the various pGL3Basic-recombinant plasmids (2 mg), encoding firefly luciferase, along with pRL-TK (200 ng), encoding renilla luciferase, using DMRIE-C® transfection reagent. HEK293, WI-38, and 1° hAoSMCs were co-transfected with the pGL3Basic-recombinant plasmids (2 mg), along with pRL-TK (200 ng), using Effectene transfection reagent. In all cases, cells co-transfected with pRL-TK (200 ng) in the presence of either the pGL3Control vector (firefly luciferase gene under the control of the SV40 promoter; 2 mg) or the promoter-less pGL3Basic empty vector (2 mg), which served as positive and negative controls, respectively. Firefly and renilla luciferase expression was assayed some 48 h post-transfection using the Dual-Luciferase Reporter Assay System™, as described (Coyle et al., 2005). Relative firefly to renilla luciferase activity (arbitrary units) was calculated as a ratio and was expressed in relative luciferase units (RLU). To investigate the effect of over-expression of exon 5 (+ or −) or KTS (+ or −) isoforms of WT1 on Prm1-directed gene expression, HEL cells were co-transfected with either pGL3b:Prm1 or pGL3b:Prm1D (1.5 μg) plus 200 ng of pRL-TK along with either pcDNA3:WT1 (+/+), pcDNA3:WT1 (+/−), pcDNA3:WT1 (−/+), pcDNA3:WT1 (−/−) (0.5 μg), or as a control, pcDNA3 (0.5 μg). […]

C=C1/C(=C\C=C2/CCC[C@]3(C)[C@@H]([C@H](C)CCCC(C)(C)O)CC[C@@H]23)C[C@@H](O)C[C@@H]1O [Vitamin D3, 1α, 25-dihydroxy-vitamin D3]
Effect on luciferase expression directed by Prm1K ([1]; 80 nM Vitamin D3, 24 h or 30 h): no significant effect on luciferase expression directed by Prm1K
Increase in Prm1-directed luciferase expression ([1]; 80 nM Vitamin D3, 30 h): 1.6 fold

Prm1^GC*^(−8146): Prm1 with GC element at −8146 mutated (SEQ ID NO:13) (DNA CGGGGGTCGTGGGGTGGATGGCGGGCCAA; expressed or natural sequence; listed as Homo sapiens)
Ratio of luciferase expression relative to that directed by pGL3Control ([2]; EA.hy 926): 0.06
Statistical significance of luciferase expression vs Prm1 ([2]; EA.hy 926, ↑ = increase): ns
Mean firefly relative to renilla luciferase activity ([2]; EA.hy 926 cells, co-transfected with pRL-TK): 3.11 RLU
Ratio of luciferase expression relative to that directed by pGL3Control (HEL 92.1.7 cells; HEL): 2.65
Mean firefly relative to renilla luciferase activity (HEL 92.1.7 cells; HEL cells, co-transfected with pRL-TK, 48 h post-transfection): 21.5 RLU
Increase in luciferase activity relative to Prm1 (−8500) (HEL 92.1.7 cells; HEL, 5′ deletion or site-directed mutation of Prm1): 2.5 fold
Luciferase expression compared with another construct, in words (HEL 92.1.7 cells; HEL, comparator as named in the words or parent fragment): significantly stronger promoters
Level of human tissue factor expression driven by the promoter [3]: significantly greater
Ratio of luciferase expression relative to that directed by pGL3Control [4]: 1.18
Mean firefly relative to renilla luciferase activity [4]: 82.67 RLU
Mean firefly relative to renilla luciferase activity ([4]; listed as pGL3BPrm1GC-8146): 82.668 RLU
Ratio of luciferase expression relative to that directed by pGL3Control ([5]; WI-38): 0.51
Statistical significance of luciferase expression vs Prm1 ([5]; WI-38, ↑ = increase): ns
Mean firefly relative to renilla luciferase activity ([5]; WI-38 cells, co-transfected with pRL-TK): 59.01 RLU
Ratio of luciferase expression relative to that directed by pGL3Control ([6]; HEK): 0.69
Statistical significance of luciferase expression vs Prm1 ([6]; HEK 293, ↑ = increase): ns
Mean firefly relative to renilla luciferase activity ([6]; HEK 293 cells, co-transfected with pRL-TK): 6.9 RLU

B1: NAB1: Egr1 co-repressor NGFI-A-binding protein 1, over-expressed from pCMV5-NAB1 (protein)
chain: MAAALPRTLGELQLYRILQKANLLSYFDAFIQQGGDDVQQLCEAGEEEFLEIMALVGMASKPLHVRRLQKALRDWVTNPGLFNQPLTSLPVSSIPIYKLPEGSPTWLGISCSSYERSSNAREPHLKIPKCAATTCVQSLGQGKSDVVGSLALQSVGESRLWQGHHATESEHSLSPADLGSPASPKESSEALDAAAALSVAECVERMAPTLPKSDLNEVKELLKTNKKLAKMIGHIFEMNDDDPHKEEEIRKYSAIYGRFDSKRKDGKHLTLHELTVNEAAAQLCVKDNALLTRRDELFALARQISREVTYKYTYRTTKSKCGERDELSPKRIKVEDGFPDFQDSVQTLFQQARAKSEELAALSSQQPEKVMAKQMEFLCNQAGYERLQHAERRLSAGLYRQSSEEHSPNGLTSDNSDGQGERPLNLRMPNLQNRQPHHFVVDGELSRLYPSEAKSHSSESLGILKDYPHSAFTLEKKVIKTEPEDSR
Effect of NAB1 over-expression on PMA-induction of Prm1 activity ([7]; HEL, PMA 100 nM 16 h): significantly reduced the PMA-induction of Prm1 activity
Effect of NAB1 over-expression on Prm1-directed luciferase activity ([7]; vehicle-treated HEL cells): did not significantly affect Prm1-directed luciferase activity
